Patent publication US8389500B2, “Fused heterocyclic compounds as ion channel modulators” (Gilead Sciences, Inc., priority 2008, dated 2013)

Molecular target: T1, wild-type human cardiac sodium channel, hNav1.5 (late sodium current) (Homo sapiens, UniProt Q14524)
T1 construct: host or cells: HEK293
Assay: Late INa screening assay (PatchXpress whole cell patch clamp)
Type: cell-based
Settings: 10 μM test compound; HEK293 hNav1.5; late INa generated with 10 μM Tefluthrin (some experiments 50 nM ATX II); read-out: Late INa % blk (10 μM test cmpd)
How it was run: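 Late sodium current block was assessed by automated whole cell patch clamp on a PatchXpress 7000A using HEK293 cells stably expressing wild-type human hNav1.5 without beta subunits. Late current was induced with 10 μM Tefluthrin or 50 nM ATX II. Channels were stepped from −120 mV to −20 mV for 250 ms at 0.1 Hz at 24-27° C. Current was normalized to 0Na baseline and expressed as percent block.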

T1 sequence (Q14524 whole entry): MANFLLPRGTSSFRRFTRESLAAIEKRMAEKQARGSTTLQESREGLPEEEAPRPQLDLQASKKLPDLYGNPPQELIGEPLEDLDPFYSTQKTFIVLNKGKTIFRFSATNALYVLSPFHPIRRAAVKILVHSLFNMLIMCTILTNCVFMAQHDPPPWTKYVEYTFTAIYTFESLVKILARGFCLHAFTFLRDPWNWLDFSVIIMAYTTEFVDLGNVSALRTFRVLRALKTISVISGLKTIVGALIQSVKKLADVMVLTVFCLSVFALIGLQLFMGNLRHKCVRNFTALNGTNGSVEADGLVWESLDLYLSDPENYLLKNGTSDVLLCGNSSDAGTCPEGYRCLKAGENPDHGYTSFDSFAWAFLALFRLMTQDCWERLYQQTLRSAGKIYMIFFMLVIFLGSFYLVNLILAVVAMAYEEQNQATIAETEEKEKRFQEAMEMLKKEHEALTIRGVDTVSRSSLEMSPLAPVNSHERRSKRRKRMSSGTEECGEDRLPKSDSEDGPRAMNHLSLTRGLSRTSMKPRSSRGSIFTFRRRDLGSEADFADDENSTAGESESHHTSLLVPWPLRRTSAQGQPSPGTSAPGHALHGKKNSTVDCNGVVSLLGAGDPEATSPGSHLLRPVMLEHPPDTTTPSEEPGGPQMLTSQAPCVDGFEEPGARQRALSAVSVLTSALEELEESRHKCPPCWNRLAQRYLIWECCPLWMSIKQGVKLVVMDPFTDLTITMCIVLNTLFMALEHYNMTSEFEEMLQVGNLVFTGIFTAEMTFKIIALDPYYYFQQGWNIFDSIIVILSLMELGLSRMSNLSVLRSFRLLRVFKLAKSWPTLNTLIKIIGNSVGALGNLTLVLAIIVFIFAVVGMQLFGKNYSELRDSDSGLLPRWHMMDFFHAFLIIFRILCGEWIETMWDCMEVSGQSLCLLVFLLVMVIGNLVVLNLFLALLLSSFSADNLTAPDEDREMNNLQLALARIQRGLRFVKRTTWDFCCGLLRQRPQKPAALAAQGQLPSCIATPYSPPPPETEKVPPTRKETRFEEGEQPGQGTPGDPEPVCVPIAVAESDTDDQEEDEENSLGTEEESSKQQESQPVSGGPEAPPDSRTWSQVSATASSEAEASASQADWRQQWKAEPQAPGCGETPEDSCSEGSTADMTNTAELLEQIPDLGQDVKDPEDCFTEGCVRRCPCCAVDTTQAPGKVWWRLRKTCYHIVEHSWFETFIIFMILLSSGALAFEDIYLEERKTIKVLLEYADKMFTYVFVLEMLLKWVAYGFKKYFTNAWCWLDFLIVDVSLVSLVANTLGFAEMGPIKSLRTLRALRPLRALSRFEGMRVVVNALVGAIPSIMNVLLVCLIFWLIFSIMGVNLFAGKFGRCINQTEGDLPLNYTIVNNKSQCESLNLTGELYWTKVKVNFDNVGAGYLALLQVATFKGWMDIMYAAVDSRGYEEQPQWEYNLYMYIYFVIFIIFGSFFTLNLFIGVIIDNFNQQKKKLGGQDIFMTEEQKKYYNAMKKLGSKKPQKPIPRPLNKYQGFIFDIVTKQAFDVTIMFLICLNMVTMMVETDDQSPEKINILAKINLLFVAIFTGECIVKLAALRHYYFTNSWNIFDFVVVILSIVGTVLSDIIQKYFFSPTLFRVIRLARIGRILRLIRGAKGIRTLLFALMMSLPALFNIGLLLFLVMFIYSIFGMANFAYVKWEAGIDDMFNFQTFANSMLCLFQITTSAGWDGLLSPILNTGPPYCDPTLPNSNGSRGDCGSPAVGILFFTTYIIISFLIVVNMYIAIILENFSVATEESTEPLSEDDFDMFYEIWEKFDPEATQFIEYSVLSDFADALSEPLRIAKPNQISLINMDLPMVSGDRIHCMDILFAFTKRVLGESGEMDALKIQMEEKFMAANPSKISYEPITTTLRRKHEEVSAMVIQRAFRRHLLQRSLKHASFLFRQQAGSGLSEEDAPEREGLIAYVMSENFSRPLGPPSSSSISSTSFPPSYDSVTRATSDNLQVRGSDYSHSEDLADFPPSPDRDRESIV

| Structure (SMILES) | inhibition at 10 µM [%] |
| --- | --- |
| Cc1cc(N(Cc2ccc(C(=O)O)cc2)S(C)(=O)=O)ccc1-c1ccc(Oc2ccc(F)cc2)cc1 [PT-136, 4-((N-(4′-(4-fluorophenoxy)-2-methylbiphenyl-4-yl)methylsulfonamido)methyl)benzoic acid] | 8.8 |
| CNC(=O)c1cc(N(Cc2ccc(S(C)(=O)=O)cc2)S(C)(=O)=O)ccc1-c1ccc(Oc2ccccc2)cc1 [PT-138, N-methyl-4-(N-(4-(methylsulfonyl)benzyl)methylsulfonamido)-4′-phenoxybiphenyl-2-carboxamide] | 12.6 |
| CNC(=O)c1cc(NS(=O)(=O)C2CC2)ccc1-c1ccc(Oc2ccccc2)cc1 [PT-139, 4-(cyclopropanesulfonamido)-N-methyl-4′-phenoxybiphenyl-2-carboxamide] | 43.7 |
| CC(C)NC(=O)c1cc(NS(C)(=O)=O)ccc1-c1ccc(Oc2ccccc2)cc1 [PT-140, N-isopropyl-4-(methylsulfonamido)-4′-phenoxybiphenyl-2-carboxamide] | 47.4 |
| Cc1cc(N(Cc2ccc(C(=O)O)cc2)S(C)(=O)=O)ccc1-c1ccc(Oc2ccccc2)c(F)c1 [PT-141, 4-((N-(3′-fluoro-2-methyl-4′-phenoxybiphenyl-4-yl)methylsulfonamido)methyl)benzoic acid] | 23.8 |
| Cc1cc(-c2ccc(Oc3ccccc3)cc2)c(F)cc1N(Cc1ccc(C(=O)O)cc1)S(C)(=O)=O [PT-142, 4-((N-(2-fluoro-5-methyl-4′-phenoxybiphenyl-4-yl)methylsulfonamido)methyl)benzoic acid] | 2.7 |
| Cc1cc(N(Cc2ccc([N+](=O)[O-])cc2)S(C)(=O)=O)ccc1-c1ccc(Oc2ccccc2)cc1 [PT-143, N-(2-methyl-4′-phenoxybiphenyl-4-yl)-N-(4-nitrobenzyl)methanesulfonamide] | 8.7 |
| Cc1cc(NS(C)(=O)=O)ccc1-c1ccc(OC(C)C)cc1 [PT-144, N-(4′-isopropoxy-2-methylbiphenyl-4-yl)methanesulfonamide] | 44.7 |
| CCOC(=O)c1ccc(CN(c2ccc(-c3ccc(OC(C)C)cc3)c(C)c2)S(C)(=O)=O)cc1 [PT-145, ethyl 4-((N-(4′-isopropoxy-2-methylbiphenyl-4-yl)methylsulfonamido)methyl)benzoate] | 17.1 |
| Cc1cc(N(Cc2ccc(C(=O)O)cc2)S(C)(=O)=O)ccc1-c1ccc(OC(C)C)cc1 [PT-146, 4-((N-(4′-isopropoxy-2-methylbiphenyl-4-yl)methylsulfonamido)methyl)benzoic acid] | 3.65 |
| CC(C)Oc1ccc(-c2ccc(NS(C)(=O)=O)c(Cl)c2)cc1 [PT-148, N-(3-chloro-4′-isopropoxybiphenyl-4-yl)methanesulfonamide] | 36.2 |
| CS(=O)(=O)Nc1ccc(-c2ccc(Oc3ccc(F)cc3)cc2)cc1Cl [PT-149, N-(3-chloro-4′-(4-fluorophenoxy)biphenyl-4-yl)methanesulfonamide] | 58 |
| Cc1cc(NS(=O)(=O)C2CC2)ccc1-c1ccc(C#N)cc1 [PT-150, N-(4′-cyano-2-methylbiphenyl-4-yl)cyclopropanesulfonamide] | 22.5 |
| Cc1cc(NS(=O)(=O)C2CC2)ccc1-c1ccc(OC(C)C)cc1 [PT-151, N-(4′-isopropoxy-2-methylbiphenyl-4-yl)cyclopropanesulfonamide] | 32.6 |
| CC(C)Oc1ccc(-c2ccc(NS(=O)(=O)C3CC3)c(C#N)c2)cc1 [PT-152, N-(3-cyano-4′-isopropoxybiphenyl-4-yl)cyclopropanesulfonamide] | 29 |
| CS(=O)(=O)N(Cc1ccc(C(=O)O)cc1)c1cccc(-c2ccc(C(F)(F)F)c(F)c2)c1 [PT-154, 4-((N-(3′-fluoro-4′-(trifluoromethyl)biphenyl-3-yl)methylsulfonamido)methyl)benzoic acid] | 7 |
| CS(=O)(=O)N(Cc1ccc(C(=O)O)cc1)c1ccc(-c2ccc(Oc3ccccc3)cc2)cc1 [PT-156, 4-((N-(4′-phenoxybiphenyl-4-yl)methylsulfonamido)methyl)benzoic acid] | 7.9 |
| CC(C)Oc1ccc(-c2ccc(NS(=O)(=O)C3CC3)c(-c3nn[nH]n3)c2)cc1 [PT-157, N-(4′-isopropoxy-3-(2H-tetrazol-5-yl)biphenyl-4-yl)cyclopropanesulfonamide] | 5.8 |
| Cc1cc(NS(=O)(=O)C2CC2)ccc1-c1ccc(-c2nn[nH]n2)cc1 [PT-158, N-(2-methyl-4′-(2H-tetrazol-5-yl)biphenyl-4-yl)cyclopropanesulfonamide] | 2.8 |
| COP(=O)(O)c1cc(-c2ccc(Oc3ccc(F)cc3)cc2)ccc1NS(C)(=O)=O [PT-159, methyl hydrogen 4′-(4-fluorophenoxy)-4-(methylsulfonamido)biphenyl-3-ylphosphonate] | 36.1 |
| CS(=O)(=O)N(Cc1ccc(CC(=O)O)cc1)c1ccc(-c2ccc(Oc3ccccc3)cc2)c(Cl)c1 [PT-161, 2-(4-((N-(2-chloro-4′-phenoxybiphenyl-4-yl)methylsulfonamido)methyl)phenyl)acetic acid] | 30.9 |
| O=C(NCCO)c1cc(-c2ccc(C(F)(F)F)cc2)ccc1NS(=O)(=O)C1CC1 [PT-162, 4-(cyclopropanesulfonamido)-N-(2-hydroxyethyl)-4′-(trifluoromethyl)biphenyl-3-carboxamide] | -5.3 |
| CS(=O)(=O)Nc1ccc(-c2ccc(Oc3ccccc3)cc2)c(N)c1 [PT-163, N-(2-amino-4′-phenoxybiphenyl-4-yl)methanesulfonamide] | 54.7 |
| CS(=O)(=O)Nc1ccc(-c2ccc(C(F)(F)F)cc2)c(N)c1 [PT-164, N-(2-amino-4′-(trifluoromethyl)biphenyl-4-yl)methanesulfonamide] | 12.2 |
| CS(=O)(=O)Nc1ccc(-c2ccc(C(F)(F)F)cc2)c(NC(=O)c2cccnc2)c1 [PT-165, N-(4-(methylsulfonamido)-4′-(trifluoromethyl)biphenyl-2-yl)nicotinamide] | -0.3 |
